Experimental data: PMC6278366, “Synthesis and Evaluation of Anticancer Activities of Novel C-28 Guanidine-Functionalized Triterpene Acid Derivatives” (Molecules, 2018)
Counter-ions that a name gives are not always drawn. Like-named read-outs stand apart in the source and are kept apart here.

Experiments:
[1] = tested on: HEK293 (embryonic kidney) cells; assay: Cytotoxicity assay (7-AAD viability, flow cytometry), HEK293; type: cell-based, human; conditions: at least three experiments in duplicate, viable cells
Description: (§1) Cells (Jurkat, K562, U937, HeLa, HEK293 and normal Fibroblasts) were purchased from Russian Cell Culture Collection (Institute of Cytology of the Russian Academy of Sciences, Saint Petersburg, Russia) and cultured according to standard mammalian tissue culture protocols and sterile technique. Human cell lines HEK293 and HeLa were obtained from the HPA Culture Collections (Salisbury, UK). All cell lines used in the study were tested and shown to be free of mycoplasma and viral contamination.
(§2) HEK293, HeLa cell lines and fibroblasts were cultured as monolayers and maintained in Dulbecco’s modified Eagle’s medium (DMEM, Gibco BRL, Waltham, MA, USA) supplemented with 10% foetal bovine serum and 1% penicillin-streptomycin solution at 37 °C in a humidified incubator under a 5% CO2 atmosphere.
(§3) Cells were maintained in RPMI 1640 (Jurkat, K562, U937) (Gibco, Thermo Fisher Scientific, Waltham, MA, USA) supplemented with 4 mM glutamine, 10% FBS (Sigma, Burlington, MA, USA) and 100 units/mL penicillin-streptomycin (Sigma). All types of cells were grown in an atmosphere of 5% CO2 at 37 °C. The cells were subcultures at 2–3 days intervals. Adherent cells (HEK293, HeLa, fibroblasts) were suspended using trypsin/EDTA and counted after they have reached 80% confluency. Cells were then seeded in 24 well plates at 5 × 10^4 cells per well and incubated overnight. Jurkat, K562, U937 cells were subcultured at 2 day intervals with a seeding density of 1 × 10^5 cells per 24 well plates in RPMI with 10% FBS.
(§4) Viability (Live/dead) assessment was performed by staining cells with 7-AAD (7-Aminoactinomycin D) (Biolegend, San Diego, CA, USA). Cells were treated of test compounds with six different concentrations (1, 5, 10, 15, 30 and 60 μM). After treatment, cells were harvested, washed 1–2 times with phosphate-buffered saline (PBS) and centrifuged at 400× g for 5 min. Cell pellets were resuspended in 200 μL of flow cytometry staining buffer (PBS without Ca^2+ and Mg^2+, 2.5% FBS) and stained with 5 μL of 7-AAD staining solutionfor 15 min at room temperature in the dark. Samples were acquired on NovoCyteTM 2000 FlowCytometry System (ACEA, San Diego, CA, USA) equipped with 488 nm argon laser. Detection of 7-AAD emission was collected through a 675/30 nm filter in FL4 channel.

[2] = tested on: K562 (chronic myeloid leukemia) cells; assay: Cytotoxicity assay (7-AAD viability, flow cytometry), K562; type: cell-based, human; conditions: viable cells
Description: as §1, §3, §4

[3] = tested on: U937 (histiocytic lymphoma) cells; assay: Cytotoxicity assay (7-AAD viability, flow cytometry), U937; type: cell-based, human
Description: as §1, §3, §4

[4] = tested on: Jurkat (T-lymphoblastic leukemia) cells; assay: cells; type: cell-based; conditions: for IC50: viable cells; for SI (selectivity towards Jurkat cells): SI = IC50 fibroblasts/IC50 Jurkat cells
Description: as §1, §3, §4

[5] = tested on: HeLa (cervical cancer) cells; assay: Cytotoxicity assay (7-AAD viability, flow cytometry), HeLa; type: cell-based, human; conditions: mean ± SE, at least three experiments in duplicate, viable cells
Description: as §1, §2, §3, §4

normal human fibroblasts = assay: Cytotoxicity assay (7-AAD viability, flow cytometry), normal fibroblasts; type: cell-based; conditions: mean ± SE, at least three experiments in duplicate
Description: as §1, §2, §3
as §4, with “Cells were treated of test compounds with six different concentrations (1, 5, 10, 15, 30 and 60 μM).” left out

[6] = Homo sapiens, HEK293, mean ± SE
[7] = read-out: IC50 U937; mean ± SE, at least three experiments in duplicate; viable cells
[8] = Homo sapiens, Jurkat, mean ± SE, at least three experiments in duplicate, read-out: IC50 Jurkat
[9] = Homo sapiens, K562, mean ± SE, at least three experiments in duplicate, read-out: IC50 K562
[10] = Homo sapiens, U-937, mean ± SE, at least three experiments in duplicate; viable cells; read-out: IC50 U937

| SMILES | IC50 [1, 6] [µM] | IC50 ([2]; Homo sapiens, K562, read-out: IC50 K562, mean ± SE, at least three experiments in duplicate) [µM] | IC50 [3, 7] [µM] | IC50 ([4]; Homo sapiens, Jurkat, read-out: IC50 Jurkat, mean ± SE, at least three experiments in duplicate) [µM] | IC50 ([5]; Homo sapiens, HeLa) [µM] | IC50 (normal human fibroblasts; Homo sapiens, Fibroblast) [µM] | IC50 ([1]; mean ± SE) [µM] | IC50 ([2]; read-out: IC50 K562, mean ± SE, at least three experiments in duplicate) [µM] | IC50 ([4]; read-out: IC50 Jurkat, mean ± SE, at least three experiments in duplicate) [µM] | IC50 [5] [µM] | IC50 (normal human fibroblasts) [µM] | IC50 ([2]; mean ± SE, at least three experiments in duplicate, read-out: IC50 K562) [µM] | IC50 ([3]; mean ± SE, at least three experiments in duplicate; viable cells; read-out: IC50 U937) [µM] | IC50 [4, 8] [µM] | IC50 [2, 9] [µM] | IC50 [3, 10] [µM] | increase in cytotoxic activity against Jurkat cells in comparison with dihydrobetulinic acid 2 [4] | SI (selectivity towards Jurkat cells) [4] |
| --- | --- | --- | --- | --- | --- | --- | --- | --- | --- | --- | --- | --- | --- | --- | --- | --- | --- | --- |
| CC(=O)O[C@H]1CC[C@@]2(C)C(CC[C@]3(C)C2CCC2C4C(C(C)C)CC[C@]4(C(=O)NCCN(CCNC(=N)N)CCNC(=N)N)CC[C@]23C)C1(C)C (single isomer, unassigned) [Compound 12a, 3β-N-[2-(N,N′-bis-Ethylgyanidine)-aminoethyl]-3-O-acetyl-lupane-28-amide trifluoroacetate] | 112 ± 0.19 | 89 ± 0.18 | 28 ± 0.25 | 22 ± 0.21 | 101 ± 0.22 | 149 ± 0.43 | – | – | – | – | – | – | – | – | – | – | – | – |
| CC(=O)O[C@H]1CC[C@@]2(C)C(CC[C@]3(C)C2CCC2C4C(C(C)C)CC[C@]4(C(=O)NCCN(CCNC(=N)N)CCNC(=N)N)CC[C@]23C)C1(C)C (single isomer, unassigned) [Compound 12b, 3β-N-[2-(N,N′-bis-Ethylgyanidine)-aminoethyl]-3-O-acetyl-lupane-28-amide dihydrochloride] | – | – | 13 ± 0.06 | – | – | – | 68 ± 0.29 | 52 ± 0.26 | 14 ± 0.37 | 72 ± 0.34 | 106 ± 0.23 | – | – | – | – | – | – | – |
| CC(=O)O[C@H]1CC[C@@]2(C)C(CC[C@]3(C)C2CC=C2C4[C@@H](C)[C@H](C)CC[C@]4(C(=O)OCC(CO)(CO)NC(=N)N)CC[C@]23C)C1(C)C (single isomer, unassigned) [Compound 18b, 3β-[2-Guanidine-3-hydroxy-2-(hydroxymethyl)propyl]-3-O-acetyl-urs-12-en-28-oate trifluoroacetate] | 13 ± 0.19 | – | – | – | 11 ± 0.27 | 47 ± 0.15 | – | – | – | – | – | 40 ± 0.29 | 2.1 ± 0.41 | 6.8 ± 0.32 | – | – | – | – |
| CC(C)C1CC[C@]2(C(=O)NCCCCNC(=N)N)CC[C@]3(C)C(CCC4[C@@]5(C)CCC(=O)C(C)(C)C5CC[C@]43C)C12 (stereo partly drawn) [Compound 9b, N-(4-Butylgyanidine)-3-oxolupane-28-amide dihydrochloride] | 92 ± 0.34 | – | – | – | 81 ± 0.19 | 179 ± 0.43 | – | – | – | – | – | – | – | 21 ± 0.24 | 57 ± 0.36 | 14 ± 0.16 | approximately 3 fold | 8.5 |
| CC(=O)O[C@H]1CC[C@@]2(C)C(CC[C@]3(C)C2CCC2C4C(C(C)C)CC[C@]4(C(=O)NCCNC(=N)N)CC[C@]23C)C1(C)C (stereo partly drawn) [Compound 10b, 3β-N-(2-Ethylgyanidine)-3-O-acetyl-lupane-28-amide hydrochloride] | 128 ± 0.35 | – | – | – | 152 ± 0.49 | 354 ± 0.46 | – | – | – | – | – | – | – | 67 ± 0.21 | 98 ± 0.35 | 82 ± 0.14 | – | – |
| CC(=O)O[C@H]1CC[C@@]2(C)C(CC[C@]3(C)C2CCC2C4C(C(C)C)CC[C@]4(C(=O)NCCCCNC(=N)N)CC[C@]23C)C1(C)C (stereo partly drawn) [Compound 11b, 3β-N-(4-Butylgyanidine)-3-O-acetyl-lupane-28-amide hydrochloride] | 98 ± 0.27 | – | – | – | 106 ± 0.51 | 117 ± 0.38 | – | – | – | – | – | – | – | 16 ± 0.18 | 55 ± 0.38 | 63 ± 0.29 | approximately 3 fold | 7.3 |
| CC(=O)O[C@H]1CC[C@@]2(C)C(CC[C@]3(C)C2CCC2C4C(C(C)C)CC[C@]4(C(=O)NCCCN4CCN(CCCNC(=N)N)CC4)CC[C@]23C)C1(C)C (stereo partly drawn) [Compound 13a, 3β-N-{[3-(3-Propylguanidine)piperazinyl]propyl}-3-O-acetyl-lupane-28-amide trifluoroacetate] | 74 ± 0.15 | – | – | – | 79 ± 0.29 | 104 ± 0.26 | – | – | – | – | – | – | – | 24 ± 0.27 | 11 ± 0.33 | 18 ± 0.21 | – | – |
| CC(C)C1CC[C@]2(C(=O)NCCCCNC(=N)N)CC[C@]3(C)C(CCC4[C@@]5(C)CC[C@H](O)C(C)(C)C5CC[C@]43C)C12 (stereo partly drawn) [Compound 14, 3β-N-(4-Butylgyanidine)-3-hydroxy-lupane-28-amide] | 59 ± 0.21 | – | – | – | 62 ± 0.24 | 96 ± 0.17 | – | – | – | – | – | – | – | 17 ± 0.34 | 36 ± 0.42 | 20 ± 0.12 | approximately 3 fold | 5.6 |
| CC(=O)O[C@H]1CC[C@@]2(C)C(CC[C@]3(C)C2CC=C2C4CC(C)(C)CC[C@]4(C(=O)OCC(CO)(CO)NC(=N)N)CC[C@]23C)C1(C)C (stereo partly drawn) [Compound 20b, 3β-[2-Guanidine-3-hydroxy-2-(hydroxymethyl)propyl]-3-O-acetyl-olean-12-en-28-oate trifluoroacetate] | 12 ± 0.23 | – | – | – | 13 ± 0.41 | 49 ± 0.25 | – | – | – | – | – | – | – | 6.7 ± 0.15 | 20 ± 0.14 | 6.1 ± 0.43 | – | – |
| CC1(C)CC[C@]2(C(=O)O)CC[C@]3(C)C(=CC[C@@H]4[C@@]5(C)CC[C@H](O)C(C)(C)[C@@H]5CC[C@]43C)[C@@H]2C1 [OA, oleanolic acid, reference compound] | 247 ± 0.27 | – | – | – | 258 ± 0.31 | 694 ± 0.17 | – | – | – | – | – | – | – | 271 ± 0.19 | 235 ± 0.24 | 186 ± 0.18 | – | – |
| C[C@H]1[C@H](C)CC[C@]2(C(=O)O)CC[C@]3(C)C(=CC[C@@H]4[C@@]5(C)CC[C@H](O)C(C)(C)[C@@H]5CC[C@]43C)[C@H]12 [UA, ursolic acid, reference compound] | 96 ± 0.22 | – | – | – | 88 ± 0.35 | 324 ± 0.16 | – | – | – | – | – | – | – | 23 ± 0.34 | 68 ± 0.11 | 17 ± 0.12 | – | – |
